{"source": "patent US8802597B2", "about": "“Herbicidal pyrimidines” (E I du Pont de Nemours and Company, priority 2003, dated 2014)", "assay_in_all_cases": "Test C pre/postemergence", "assay_type_in_all_cases": "in vivo", "key": {"[1]": {"system": "Surinam grass (Brachiaria decumbens)", "conditions": "for Plant response rating (scale of 0 to 100), Surinam Grass: Postemergence; for Plant response rating, Surinam Grass: Preemergence, scale 0 to 100, 0 no effect, 100 complete control", "summary_of_the_method": "(§1)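 Injury scored visually 12–14 days after application on 0–100 scale (100 = complete control), relative to controls. Compounds, formulated with surfactant in non-phytotoxic solvent, applied to soil at planting (pre) or to 1- to 4-leaf plants 2–18 cm tall (post) in greenhouse.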"}, "[2]": {"system": "cocklebur (Xanthium strumarium)", "conditions": "for Plant response rating, Cocklebur: Preemergence", "summary_of_the_method": "as §1"}, "[3]": {"system": "common (oilseed) sunflower (Helianthus annuus)", "conditions": "Preemergence, scale 0 to 100, 0 no effect, 100 complete control", "summary_of_the_method": "as §1"}, "corn (Zea mays)": {"system": "corn (Zea mays)", "conditions": "for Plant response rating, Corn: Preemergence", "summary_of_the_method": "as §1"}, "[4]": {"system": "crabgrass (Digitaria sanguinalis)", "conditions": "for Plant response rating, Crabgrass: Preemergence", "summary_of_the_method": "as §1"}, "[5]": {"system": "eastern black nightshade (Solanum ptycanthum)", "conditions": "Preemergence, scale 0 to 100, 0 no effect, 100 complete control", "summary_of_the_method": "as §1"}, "[6]": {"system": "giant foxtail (Setaria faberii)", "conditions": "for Plant response rating, Foxtail, Giant: Preemergence", "summary_of_the_method": "as §1"}, "[7]": {"system": "johnsongrass (Sorghum halepense)", "conditions": "for Plant response rating, Johnsongrass: Preemergence", "summary_of_the_method": "as §1"}, "kochia (Kochia scoparia)": {"system": "kochia (Kochia scoparia)", "conditions": "for Plant response rating, Kochia: Preemergence", "summary_of_the_method": "as §1"}, "[8]": {"system": "lambsquarters (Chenopodium album)", "conditions": "for Plant response rating, Lambsquarters: Preemergence", "summary_of_the_method": "as §1"}, "[9]": {"system": "morningglory (Ipomoea coccinea)", "conditions": "for Plant response rating, Morningglory: Preemergence", "summary_of_the_method": "as §1"}, "soybean (Glycine max)": {"system": "soybean (Glycine max)", "conditions": "for Plant response rating, Soybean: Preemergence, scale 0 to 100, 0 no effect, 100 complete control", "summary_of_the_method": "as §1"}, "[10]": {"conditions": "Postemergence, 125 g ai/ha, scale 0 to 100 (0 no effect, 100 complete control)"}, "[11]": {"conditions": "16 g ai/ha, scale 0 to 100, 0 no effect, 100 complete control"}, "[12]": {"conditions": "31 g ai/ha, scale 0 to 100, 0 no effect, 100 complete control"}, "[13]": {"conditions": "62 g ai/ha, scale 0 to 100, 0 no effect, 100 complete control"}}, "data": [{"smiles": "CCCCOC(=O)c1nc(C2CC2)nc(N)c1Cl", "note": "[Compound 76]", "values": [{"measurement": "Plant response rating (scale of 0 to 100), Surinam Grass", "setting": "[1]; 16 g ai/ha", "result": 60}, {"measurement": "Plant response rating (scale of 0 to 100), Surinam Grass", "setting": "[1]; 31 g ai/ha", "result": 70}, {"measurement": "Plant response rating (scale of 0 to 100), Surinam Grass", "setting": "[1]; 62 g ai/ha", "result": 95}, {"measurement": "Plant response rating, Surinam Grass", "setting": "[1]; 16 g ai/ha", "result": 0}, {"measurement": "Plant response rating, Surinam Grass", "setting": "[1]; 31 g ai/ha", "result": 0}, {"measurement": "Plant response rating, Surinam Grass", "setting": "[1]; 62 g ai/ha", "result": 0}, {"measurement": "Plant response rating (scale of 0 to 100), Cocklebur", "setting": "[2]; Postemergence, 16 g ai/ha", "result": 100}, {"measurement": "Plant response rating (scale of 0 to 100), Cocklebur", "setting": "[2]; Postemergence, 31 g ai/ha", "result": 100}, {"measurement": "Plant response rating (scale of 0 to 100), Cocklebur", "setting": "[2]; Postemergence, 62 g ai/ha", "result": 100}, {"measurement": "Cocklebur plant response rating", "setting": "[2]; [10]", "result": 100}, {"measurement": "Plant response rating, Cocklebur", "setting": "[2]; [11]", "result": 65}, {"measurement": "Plant response rating, Cocklebur", "setting": "[2]; [12]", "result": 90}, {"measurement": "Plant response rating, Cocklebur", "setting": "[2]; [13]", "result": 90}, {"measurement": "Plant response rating, Cocklebur", "setting": "[2]; 125 g ai/ha, scale 0 to 100", "result": 90}, {"measurement": "Plant response rating, Sunflower", "setting": "[3]; 16 g ai/ha", "result": 50}, {"measurement": "Plant response rating, Sunflower", "setting": "[3]; 31 g ai/ha", "result": 85}, {"measurement": "Plant response rating, Sunflower", "setting": "[3]; 62 g ai/ha", "result": 100}, {"measurement": "Plant response rating (scale of 0 to 100), Corn", "setting": "corn (Zea mays); Postemergence, 16 g ai/ha", "result": 10}, {"measurement": "Plant response rating (scale of 0 to 100), Corn", "setting": "corn (Zea mays); Postemergence, 31 g ai/ha", "result": 35}, {"measurement": "Plant response rating (scale of 0 to 100), Corn", "setting": "corn (Zea mays); Postemergence, 62 g ai/ha", "result": 55}, {"measurement": "Corn plant response rating", "setting": "corn (Zea mays); [10]", "result": 70}, {"measurement": "Plant response rating, Corn", "setting": "corn (Zea mays); [11]", "result": 0}, {"measurement": "Plant response rating, Corn", "setting": "corn (Zea mays); [12]", "result": 0}, {"measurement": "Plant response rating, Corn", "setting": "corn (Zea mays); [13]", "result": 35}, {"measurement": "Plant response rating, Corn", "setting": "corn (Zea mays); 125 g ai/ha, scale 0 to 100", "result": 45}, {"measurement": "Plant response rating (scale of 0 to 100), Crabgrass", "setting": "[4]; Postemergence, 16 g ai/ha", "result": 55}, {"measurement": "Plant response rating (scale of 0 to 100), Crabgrass", "setting": "[4]; Postemergence, 31 g ai/ha", "result": 75}, {"measurement": "Plant response rating (scale of 0 to 100), Crabgrass", "setting": "[4]; Postemergence, 62 g ai/ha", "result": 85}, {"measurement": "Crabgrass plant response rating", "setting": "[4]; [10]", "result": 90}, {"measurement": "Plant response rating, Crabgrass", "setting": "[4]; [11]", "result": 0}, {"measurement": "Plant response rating, Crabgrass", "setting": "[4]; [12]", "result": 0}, {"measurement": "Plant response rating, Crabgrass", "setting": "[4]; [13]", "result": 5}, {"measurement": "Plant response rating, Crabgrass", "setting": "[4]; 125 g ai/ha, scale 0 to 100", "result": 60}, {"measurement": "Plant response rating, Nightshade", "setting": "[5]; 16 g ai/ha", "result": 30}, {"measurement": "Plant response rating, Nightshade", "setting": "[5]; 31 g ai/ha", "result": 40}, {"measurement": "Plant response rating, Nightshade", "setting": "[5]; 62 g ai/ha", "result": 60}, {"measurement": "Plant response rating, Nightshade", "setting": "[5]", "result": 100}, {"measurement": "Plant response rating (scale of 0 to 100), Foxtail, Giant", "setting": "[6]; Postemergence, 16 g ai/ha", "result": 15}, {"measurement": "Plant response rating (scale of 0 to 100), Foxtail, Giant", "setting": "[6]; Postemergence, 31 g ai/ha", "result": 25}, {"measurement": "Plant response rating (scale of 0 to 100), Foxtail, Giant", "setting": "[6]; Postemergence, 62 g ai/ha", "result": 55}, {"measurement": "Foxtail, Giant plant response rating", "setting": "[6]; [10]", "result": 85}, {"measurement": "Plant response rating, Foxtail, Giant", "setting": "[6]; [11]", "result": 0}, {"measurement": "Plant response rating, Foxtail, Giant", "setting": "[6]; [12]", "result": 0}, {"measurement": "Plant response rating, Foxtail, Giant", "setting": "[6]; [13]", "result": 0}, {"measurement": "Plant response rating, Foxtail, Giant", "setting": "[6]; 125 g ai/ha, scale 0 to 100", "result": 10}, {"measurement": "Plant response rating (scale of 0 to 100), Johnsongrass", "setting": "[7]; Postemergence, 16 g ai/ha", "result": 25}, {"measurement": "Plant response rating (scale of 0 to 100), Johnsongrass", "setting": "[7]; Postemergence, 31 g ai/ha", "result": 65}, {"measurement": "Johnsongrass plant response rating", "setting": "[7]; [10]", "result": 95}, {"measurement": "Plant response rating, Johnsongrass", "setting": "[7]; [11]", "result": 0}, {"measurement": "Plant response rating, Johnsongrass", "setting": "[7]; [12]", "result": 0}, {"measurement": "Plant response rating, Johnsongrass", "setting": "[7]; [13]", "result": 20}, {"measurement": "Plant response rating, Johnsongrass", "setting": "[7]; 125 g ai/ha, scale 0 to 100", "result": 50}, {"measurement": "Plant response rating (scale of 0 to 100), Kochia", "setting": "kochia (Kochia scoparia); Postemergence, 16 g ai/ha", "result": 90}, {"measurement": "Plant response rating (scale of 0 to 100), Kochia", "setting": "kochia (Kochia scoparia); Postemergence, 31 g ai/ha", "result": 95}, {"measurement": "Plant response rating (scale of 0 to 100), Kochia", "setting": "kochia (Kochia scoparia); Postemergence, 62 g ai/ha", "result": 95}, {"measurement": "Kochia plant response rating", "setting": "kochia (Kochia scoparia); [10]", "result": 100}, {"measurement": "Plant response rating, Kochia", "setting": "kochia (Kochia scoparia); [11]", "result": 70}, {"measurement": "Plant response rating, Kochia", "setting": "kochia (Kochia scoparia); [12]", "result": 90}, {"measurement": "Plant response rating, Kochia", "setting": "kochia (Kochia scoparia); [13]", "result": 95}, {"measurement": "Plant response rating, Kochia", "setting": "kochia (Kochia scoparia); 125 g ai/ha, scale 0 to 100", "result": 100}, {"measurement": "Plant response rating (scale of 0 to 100), Lambsquarters", "setting": "[8]; Postemergence, 16 g ai/ha", "result": 90}, {"measurement": "Plant response rating (scale of 0 to 100), Lambsquarters", "setting": "[8]; Postemergence, 31 g ai/ha", "result": 95}, {"measurement": "Plant response rating (scale of 0 to 100), Lambsquarters", "setting": "[8]; Postemergence, 62 g ai/ha", "result": 100}, {"measurement": "Lambsquarters plant response rating", "setting": "[8]; [10]", "result": 100}, {"measurement": "Plant response rating, Lambsquarters", "setting": "[8]; [11]", "result": 70}, {"measurement": "Plant response rating, Lambsquarters", "setting": "[8]; [12]", "result": 70}, {"measurement": "Plant response rating, Lambsquarters", "setting": "[8]; [13]", "result": 80}, {"measurement": "Plant response rating, Lambsquarters", "setting": "[8]; 125 g ai/ha, scale 0 to 100", "result": 80}, {"measurement": "Plant response rating (scale of 0 to 100), Morningglory", "setting": "[9]; Postemergence, 16 g ai/ha", "result": 95}, {"measurement": "Plant response rating (scale of 0 to 100), Morningglory", "setting": "[9]; Postemergence, 31 g ai/ha", "result": 95}, {"measurement": "Plant response rating (scale of 0 to 100), Morningglory", "setting": "[9]; Postemergence, 62 g ai/ha", "result": 95}, {"measurement": "Morningglory plant response rating", "setting": "[9]; [10]", "result": 100}, {"measurement": "Plant response rating, Morningglory", "setting": "[9]; [11]", "result": 40}, {"measurement": "Plant response rating, Morningglory", "setting": "[9]; [12]", "result": 60}, {"measurement": "Plant response rating, Morningglory", "setting": "[9]; [13]", "result": 100}, {"measurement": "Plant response rating, Morningglory", "setting": "[9]; 125 g ai/ha, scale 0 to 100", "result": 100}, {"measurement": "Plant response rating (scale of 0 to 100), Soybean", "setting": "soybean (Glycine max); Postemergence, 16 g ai/ha", "result": 95}, {"measurement": "Plant response rating (scale of 0 to 100), Soybean", "setting": "soybean (Glycine max); Postemergence, 31 g ai/ha", "result": 95}, {"measurement": "Plant response rating (scale of 0 to 100), Soybean", "setting": "soybean (Glycine max); Postemergence, 62 g ai/ha", "result": 95}, {"measurement": "Soybean plant response rating", "setting": "soybean (Glycine max); [10]", "result": 100}, {"measurement": "Plant response rating, Soybean", "setting": "soybean (Glycine max); 16 g ai/ha", "result": 50}, {"measurement": "Plant response rating, Soybean", "setting": "soybean (Glycine max); 31 g ai/ha", "result": 70}, {"measurement": "Plant response rating, Soybean", "setting": "soybean (Glycine max); 62 g ai/ha", "result": 95}]}]}
